Columns and labels:
bovine PDE 6 = biological target: T1, bovine PDE 6 (Bos taurus, UniProt P11541+P23439); experiment: Inhibition of bovine phosphodiesterase 6 (PDE 6), 3H-cGMP SPA; assay type: biochemical; details: bovine PDE 6 inhibition
T1 construct: from tissue; host or cells: bovine retina, photoreceptor outer segments (ROS)
T1 sequence (P11541 2-856 limits assumed): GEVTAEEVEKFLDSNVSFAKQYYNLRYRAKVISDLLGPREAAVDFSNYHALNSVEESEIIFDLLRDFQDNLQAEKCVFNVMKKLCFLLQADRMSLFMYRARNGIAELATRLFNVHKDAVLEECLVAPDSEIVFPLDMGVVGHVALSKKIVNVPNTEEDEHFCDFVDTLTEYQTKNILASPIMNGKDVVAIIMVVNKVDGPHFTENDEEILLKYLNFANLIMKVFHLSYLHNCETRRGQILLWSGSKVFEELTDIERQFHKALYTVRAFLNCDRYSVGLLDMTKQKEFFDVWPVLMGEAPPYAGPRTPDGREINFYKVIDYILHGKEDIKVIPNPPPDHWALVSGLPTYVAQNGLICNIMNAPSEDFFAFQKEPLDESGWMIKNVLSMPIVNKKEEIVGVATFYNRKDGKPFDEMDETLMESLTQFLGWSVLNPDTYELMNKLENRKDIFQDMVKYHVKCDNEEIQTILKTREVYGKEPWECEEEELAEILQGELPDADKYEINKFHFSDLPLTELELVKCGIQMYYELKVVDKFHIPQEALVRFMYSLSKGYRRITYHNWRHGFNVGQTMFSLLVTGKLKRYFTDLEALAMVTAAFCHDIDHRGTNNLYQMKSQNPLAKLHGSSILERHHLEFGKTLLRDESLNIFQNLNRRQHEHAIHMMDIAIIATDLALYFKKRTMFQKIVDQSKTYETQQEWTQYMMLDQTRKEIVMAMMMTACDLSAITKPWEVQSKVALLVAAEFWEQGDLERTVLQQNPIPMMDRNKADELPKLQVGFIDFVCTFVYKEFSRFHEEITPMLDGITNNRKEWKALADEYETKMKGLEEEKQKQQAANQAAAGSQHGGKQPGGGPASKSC
T1 sequence (P23439 2-850 limits assumed): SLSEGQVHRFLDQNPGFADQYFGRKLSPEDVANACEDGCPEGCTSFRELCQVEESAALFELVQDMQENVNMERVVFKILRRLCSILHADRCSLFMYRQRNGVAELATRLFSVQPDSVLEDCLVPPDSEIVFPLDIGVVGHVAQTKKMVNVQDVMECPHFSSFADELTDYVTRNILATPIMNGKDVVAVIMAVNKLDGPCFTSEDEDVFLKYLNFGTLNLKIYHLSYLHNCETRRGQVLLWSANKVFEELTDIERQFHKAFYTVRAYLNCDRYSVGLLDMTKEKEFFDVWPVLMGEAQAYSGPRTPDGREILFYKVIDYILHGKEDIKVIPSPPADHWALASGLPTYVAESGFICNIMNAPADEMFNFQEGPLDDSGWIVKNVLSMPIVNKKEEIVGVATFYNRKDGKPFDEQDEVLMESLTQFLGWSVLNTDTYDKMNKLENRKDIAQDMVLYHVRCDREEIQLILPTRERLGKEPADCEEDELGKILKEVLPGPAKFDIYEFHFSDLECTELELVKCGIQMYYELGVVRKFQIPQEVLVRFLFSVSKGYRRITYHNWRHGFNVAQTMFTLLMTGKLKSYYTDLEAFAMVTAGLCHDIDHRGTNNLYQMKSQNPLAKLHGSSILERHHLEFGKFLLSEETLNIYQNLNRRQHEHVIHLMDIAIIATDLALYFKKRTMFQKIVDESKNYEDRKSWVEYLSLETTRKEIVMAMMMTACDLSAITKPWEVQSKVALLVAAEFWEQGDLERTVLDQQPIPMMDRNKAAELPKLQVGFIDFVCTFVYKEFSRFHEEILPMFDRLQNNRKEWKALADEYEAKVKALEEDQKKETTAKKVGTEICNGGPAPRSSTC
Description: B-6. Inhibition of Bovine Phosphodiesterase 6 (PDE 6)
PDE 6 is purified from external photoreceptor segments of bovine retina (ROS), activated by mild trypsination and purified further by ion exchange chromatography using a Mono Q column. Fractions having PDE 6 activity are combined (PDE 6 preparation) and stored at −80° (I. Saenz de Tejada et al., International Journal of Impotence Research 2001, 13, 282-290). The in vitro effect of test substances on bovine PDE 6 is determined using the commercially available 3H-cGMP Scintillation Proximity Assay (SPA) from Perkin Elmer. The reaction ([…], 37° C.) comprises serial dilution series of the test substances in DMSO and PDE 6 preparation (typical dilution 1:100,000), [8^−3H]guanosine 3′,5′-cyclic phosphate (0.25 μCi/mL; Perkin Elmer) and unlabelled cGMP (10 μM) in assay buffer (50 mM Tris/HCl pH 7.5; 140 mM NaCl; 8.3 mM MgCl2; 1.7 mM EDTA; 0.02% BSA). IC50 values are determined by plotting the substance concentration against the percent PDE 6 inhibition determined (Wunder et al. Molecular Pharmacology 2005, 68, 1775-1781).

aorta rings = experiment: Vasorelaxant effect in vitro (phenylephrine-contracted aorta rings); details: Oryctolagus cuniculus; relaxation of phenylephrine-induced contraction, rabbit aorta rings
Description: B-1. Vasorelaxant Effect In Vitro
Rabbits are stunned by a blow to the neck and exsanguinated. The aorta is removed, freed from adhering tissue and divided into rings of a width of 1.5 mm. The rings are placed individually under an initial tension in 5 ml organ baths with Krebs-Henseleit solution which is at 37° C., is gassed with carbogen and has the following composition (in each case mM): sodium chloride: 119; potassium chloride: 4.8; calcium chloride dihydrate: 1; magnesium sulphate heptahydrate: 1.4; potassium dihydrogenphosphate: 1.2; sodium bicarbonate: 25; glucose: 10. The contractile force is determined with Statham UC2 cells, amplified and digitalized using A/D transducers (DAS-1802 HC, Keithley Instruments Munich), and recorded in parallel on linear recorders. To produce a contraction, phenylephrine is added to the bath cumulatively in increasing concentration. After several control cycles, the substance to be investigated is added in each further run in increasing dosage in each case, and the height of the contraction achieved is compared with the height of the contraction reached in the last preceding run. This is used to calculate the concentration needed to reduce the magnitude of the control value by 50% (IC50 value). The standard administration volume is 5 μl; the DMSO content in the bath solution corresponds to 0.1%.

Row | IC50 (bovine PDE 6) [nM] | IC50 (aorta rings) [nM] | Compound
1 | 220 | 265 | C[C@@]1(C(F)(F)F)C(=O)Nc2nc(-c3nn(Cc4ncccc4F)c4ncc(F)cc34)nc(NCCC(F)(F)F)c21 (single isomer, unassigned) [Example 1-1]
2 | 1400 | 237 | C[C@]1(C(F)(F)F)C(=O)Nc2nc(-c3nn(Cc4ncccc4F)c4ncc(F)cc34)nc(NCCC(F)(F)F)c21 (single isomer, unassigned) [Example 1-2]
